In US6815546B2, “Analogues of camptothecin, their use as medicaments and the pharmaceutical compositions containing them” (Societe de Recherches et d'Applications Scientifiques …, priority 1995, dated 2004):
pIC50: −log10 of the molar value.

How the values were obtained:
[1] = test system: Adenocarcinoma HT29 cells from the human colon; experiment: Adenocarcinoma HT29 cell proliferation, WST1 (compounds in DMA); format: cell-based; conditions: final DMA 0.1% (v/v)
Description: c. Adenocarcinoma HT29 cells from the human colon are cultured in a single layer at 37° in a humidified atmosphere containing 95% of air and 5% of CO2, in a modified essential Earle's medium at 4.5 g/l (Gibco, Paisley, United Kingdom); completed with 10% of inactivated foetal calf serum, 2 mM of glutamine, and 50 μg/ml of gentamycin (Gibco, Paisley, United Kingdom).
Approximately 2000 cells are seeded with the culture medium above in the wells of a microplate (96 wells, flat-bottomed) and incubated for 24 hours. Solutions in N,N-dimethyl-acetamide (DMA) of each of the examples of the invention, diluted in the culture medium so that the final concentration of DMA is 0.1% (v/v), are added to the plate cultures in order to obtain final concentration ranges from 1×10^−13 to 1×10^−5 M, and the cells are incubated for 72 hours.
The WST1 staining reagent, (Boehringer Mannheim, Germany) is then added to each well at a final concentration of 9%, and the cells are incubated for 2 hours at 37° C. This stage allows the mitochondrial deshydrogenase of the living cells to convert WST1 orange tetrazolium salt into crimson formazan. The resulting stained solutions are quantified by dual-beam detection ([…]) using a multi-cuvette scanning spectrophotometer.
The results shown in the following table III C) are expressed in terms of inhibitory concentration at 50% (IC50, in nM), accompanied by a confidence interval.

[2] = biological target: T1, DNA topoisomerase 1 of purified calf thymus (Bos taurus, UniProt F1MN93); experiment: Relaxation activity test of DNA induced by topoisomerase 1; format: biochemical; conditions: supercoiled pUC19, 15 minutes at 37° C.
T1 construct: DNA topoisomerase 1 of purified calf thymus (Gibco-BRL, Paisley, United Kingdom); purchased Gibco-BRL, Paisley, United Kingdom; host or cells: calf thymus tissue
T1 sequence (F1MN93 1-767): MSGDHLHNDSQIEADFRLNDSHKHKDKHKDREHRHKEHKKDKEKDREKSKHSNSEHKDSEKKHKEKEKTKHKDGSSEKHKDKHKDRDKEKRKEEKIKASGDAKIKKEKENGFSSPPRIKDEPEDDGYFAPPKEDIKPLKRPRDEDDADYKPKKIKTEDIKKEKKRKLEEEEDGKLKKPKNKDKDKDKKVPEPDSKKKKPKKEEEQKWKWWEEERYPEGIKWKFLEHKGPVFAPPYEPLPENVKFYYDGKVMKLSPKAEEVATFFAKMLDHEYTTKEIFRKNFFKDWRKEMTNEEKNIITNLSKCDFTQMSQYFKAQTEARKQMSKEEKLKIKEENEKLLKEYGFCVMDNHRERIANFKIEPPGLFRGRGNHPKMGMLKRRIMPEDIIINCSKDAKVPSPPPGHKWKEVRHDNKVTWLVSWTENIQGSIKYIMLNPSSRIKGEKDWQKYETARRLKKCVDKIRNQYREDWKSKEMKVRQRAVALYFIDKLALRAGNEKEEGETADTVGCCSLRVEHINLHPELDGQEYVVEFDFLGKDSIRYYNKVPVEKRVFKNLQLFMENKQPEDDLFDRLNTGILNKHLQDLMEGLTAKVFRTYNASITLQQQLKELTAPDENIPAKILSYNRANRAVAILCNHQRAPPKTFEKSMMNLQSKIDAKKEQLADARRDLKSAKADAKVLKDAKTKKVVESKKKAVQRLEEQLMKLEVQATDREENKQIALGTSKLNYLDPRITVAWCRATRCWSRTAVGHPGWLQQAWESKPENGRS
Description: 1. Relaxation Activity Test of DNA Induced by Topoisomerase 1
All the reactions are carried out in a 20 μl reaction buffer constituted by 50 mM of Tris-HCl (pH 7.5), 50 mM of KCl, 0.5 mM of dithiothreitol, 10 mM of MgCl2, 0.1 mM of ethyldiamine tetraacetic acid (EDTA), 30 μg/ml of bovine serum albumin and 300 ng of supercoiled pUC19 (Pharmacia Biotech, Orsay, France) with or without the compounds to be tested at defined concentrations. All the compounds to be tested are initially dissolved in dimethylsulphoxide (DMSO) at 50 mM, the other dilutions being carried out with distilled water. […] The reaction is initiated by the addition of a unit of DNA topoisomerase 1 of purified calf thymus (Gibco-BRL, Paisley, United Kingdom) and is carried out for 15 minutes at 37° C. The reactions are stopped by the addition of 3 μl of a mixture containing 1% dodecyl sodium sulphate at 1%, 20 mM of EDTA and 500 μg/ml of K proteinase (Boehringer Mannheim, Meylan, France). After an additional incubation period of 30 minutes at 37° C., 2 μl of a loading buffer containing 10 mM of Na2HPO4, 0.3% of bromophenol blue et 16% Ficoll are added to samples which are subjected to electrophoresis in agarose gels at 1.2% at 1 V/cm for 20 hours in a buffer containing 36 mM of Tris-HCl at pH 7.8, 30 mM of Na2HPO4, 1 mM of EDTA and 2 μg/ml of chloroquine. The gels are stained with 2 μg/ml of ethidium bromide, photographed under UV light at 312 nm with a camera and the fluorescent intensity is measured with a bioProfil camera (Vilber Lournat, Lyon, France) with a view to determining the percentage of relaxed DNA. Each experiment is carried out at least three times in duplicate.
In each experiment, the supercoiled plasmid DNA is incubated alone or with topoisomerase 1. The reaction is completed within 15 minutes. For each compound to be tested or control, the supercoiled plasmid DNA is incubated in the presence of 500 μM of compound to be tested with enzyme or without enzyme plus the compound to be tested, at concentrations of 10 μM, 100 μM, 200 μM and 500 μM.

## CCOCCc1c2c(nc3cc(F)cc(F)c13)-c1cc3c(c(=O)n1C2)COC(=O)C[C@]3(O)CC [Example 170, (5R)-12-(2-ethoxyethyl)-5-ethyl-9,11-difluoro-5-hydroxy-4,5,13,15-tetrahydro-1H,3H-oxepino[3′,4′:6,7]indolizino[1,2-b]quinoleine-3,15-dione]
[1]; 72 hours
  pIC50: 9.07

## CCc1c2c(nc3ccccc13)-c1cc3c(c(=O)n1C2)COC(=O)C[C@]3(O)CC [Example 88, (5R)-5,12-diethyl-5-hydroxy-4,5,13,15-tetrahydro-1H,3H-oxepino[3′,4′:6,7]indolizino[1,2-b]quinoline-3,15-dione]
[1]; Homo sapiens, HT-29, 72 hours
  pIC50: 7.92

## CC[C@@]1(O)CC(=O)OCc2c1cc1n(c2=O)Cc2c-1nc1cc(F)c(F)cc1c2CC[Si](C)(C)C [Example 99, (5R)-5-ethyl-9,10-difluoro-5-hydroxy-1 2-(2-trimethylsilylethyl)-4,5,13,15-tetrahydro-1H,3H-oxepino[3′,4′:6,7]indolizino[1,2-b]quinoline-3,15-dione]
[1]; Homo sapiens, HT-29, 72 hours
  pIC50: 8.30

## CC[C@@]1(O)CC(=O)OCc2c1cc1n(c2=O)Cc2c-1nc1cc(F)ccc1c2-c1cc(F)cc(F)c1 [Example 117, (5R)-12-(3,5-difluorophenyl)-5-ethyl-9-fluoro-5-hydroxy-4,5,13,15-tetrahydro-1H,3H-oxepino[3′,4′:6,7]indolizino[1,2-b]quinoline-3,15-dione]
[1]; Homo sapiens, HT-29, 72 hours
  pIC50: 9.60

## CCC1(O)CC(=O)OCc2c1cc1n(c2=O)Cc2cc3c4c(ccc3nc2-1)OCN(Cc1ccccc1)C4 (stereo not shown) [Example 78, 2-benzyl-9-ethyl-9-hydroxy-1,2,3,9,10,16-hexahydro-13H-[1,3]oxazino[5,6f]oxepino[3′,4′:6,7]indolizino[1,2-b]quinoline-11,14-dione]
[2]; 10 μM compound
  PERCENTAGE OF RELAXED DNA: 56.2%
[2]; 100 μM compound
  PERCENTAGE OF RELAXED DNA: 28.0%
[2]; 200 μM compound
  PERCENTAGE OF RELAXED DNA: 24.2%

## CCCCc1c2c(nc3ccccc13)-c1cc3c(c(=O)n1C2)COC(=O)C[C@]3(O)CC [Example 87, (5R)-12-butyl-5-ethyl-5-hydroxy-4,5,13,15-tetrahydro-1H,3H-oxepino[3′,4′:6,7]indolizino[1,2-b]quinoline-3,15-dione]
[1]; Homo sapiens, HT-29, 72 hours
  pIC50: 7.80

## CCCCc1c2c(nc3cc(F)ccc13)-c1cc3c(c(=O)n1C2)COC(=O)C[C@]3(O)CC [Example 105, (5R)-12-butyl-5-ethyl-9-fluoro-5-hydroxy-4,5,13,15-tetrahydro-1H,3H-oxepino[3′,4′:6,7]indolizino[1,2-b]quinoline-3,15-dione]
[1]; Homo sapiens, HT-29, 72 hours
  pIC50: 8.02

## CCCc1c2c(nc3cc(F)c(F)cc13)-c1cc3c(c(=O)n1C2)COC(=O)C[C@]3(O)CC [Example 97, (5R)-5-ethyl-9,10-difluoro-5-hydroxy-12-propyl-4,5,13,15-tetrahydro-1H,3H-oxepino[3′,4′:6,7]indolizino[1,2-b]quinoline-3,15-dione]
[1]; Homo sapiens, HT-29, 72 hours
  pIC50: 7.96

## CC[C@@]1(O)CC(=O)OCc2c1cc1n(c2=O)Cc2cc3c(F)c(F)c(F)cc3nc2-1 [Example 171, (5R)-5-ethyl-9,10,11-trifluoro-5-hydroxy-4,5,13,15-tetrahydro-1H,3H-oxepino[3′,4′:6,7]indolizino[1,2-b]quinoleine-3,15-dione]
[1]; 72 hours
  pIC50: 8.09

## CC[C@@]1(O)CC(=O)OCc2c1cc1n(c2=O)Cc2c-1nc1ccccc1c2-c1ccccc1 [Example 89, (5R)-5-ethyl-5-hydroxy-12-phenyl-4,5,13,15-tetrahydro-1H,3H-oxepino[3′,4′:6,7]indolizino[1,2-b]quinoline-3,15-dione]
[1]; Homo sapiens, HT-29, 72 hours
  pIC50: 7.89

## CC[C@@]1(O)CC(=O)OCc2c1cc1n(c2=O)Cc2c-1nc1cc(F)ccc1c2-c1cccc(F)c1 [Example 164, (5R)-5-ethyl-9-fluoro-12-(3-fluorophenyl)-5-hydroxy-4,5,13,15-tetrahydro-1H,3H-oxepino[3′,4′:6,7]indolizino[1,2-b]quinoleine-3,15-dione]
[1]; 72 hours
  pIC50: 8.57

## CC[C@@]1(O)CC(=O)OCc2c1cc1n(c2=O)Cc2c-1nc1cc(F)ccc1c2CC(C)C [Example 162, (5R)-5-ethyl-9-fluoro-5-hydroxy-12-isobutyl-4,5,13,15-tetrahydro-1H,3H-oxepino[3′,4′:6,7]indolizino[1,2-b]quinoleine-3,15-dione]
[1]; 72 hours
  pIC50: 7.92

## CCC1(O)CC(=O)OCc2c1cc1n(c2=O)Cc2cc3c4c(ccc3nc2-1)OCN(C)C4 (stereo not shown) [Example 77, 9-ethyl-9-hydroxy-2-methyl-1,2,3,9,10,16-hexahydro-13H-[1,3]oxazino[5,6f]oxepino[3′,4′:6,7]indolizino[1,2-b]quinoline-11,14-dione]
[2]; 10 μM compound
  PERCENTAGE OF RELAXED DNA: 86.2%
[2]; 100 μM compound
  PERCENTAGE OF RELAXED DNA: 35.1%
[2]; 200 μM compound
  PERCENTAGE OF RELAXED DNA: 32.1%

## CCc1c2c(nc3cc(F)c(F)cc13)-c1cc3c(c(=O)n1C2)COC(=O)C[C@]3(O)CC [Example 98, (5R)-5,12-diethyl-9,10-difluoro-5-hydroxy-4,5,13,15-tetrahydro-1H,3H-oxepino[3′,4′:6,7]indolizino[1,2-b]quinoline-3,15-dione]
[1]; Homo sapiens, HT-29, 72 hours
  pIC50: 8.68

## CCC1(O)CC(=O)OCc2c1cc1n(c2=O)Cc2cc3c4c(c(F)cc3nc2-1)OCN(Cc1ccccc1)C4 (stereo not shown) [Example 79, 2-benzyl-9-ethyl-5-fluoro-9-hydroxy-1,2,3,9,10,16-hexahydro-13H-[1,3]oxazino[5,6f]oxepino[3′,4′:6,7]indolizino[1,2-b]quinoline-11,14-dione]
[2]; 10 μM compound
  PERCENTAGE OF RELAXED DNA: 55.6%
[2]; 100 μM compound
  PERCENTAGE OF RELAXED DNA: 38.9%
[2]; 200 μM compound
  PERCENTAGE OF RELAXED DNA: 30.0%

## CCN1COc2ccc3nc4c(cc3c2C1)Cn1c-4cc2c(c1=O)COC(=O)CC2(O)CC (stereo not shown) [Example 76, 2,9-diethyl-9-hydroxy-1,2,3,9,10,16-hexahydro-13H-[1,3]oxazino[5,6-f]oxepino[3′,4′:6,7]indolizino[1,2-b]quinoline-11,14-dione]
[2]; 10 μM compound
  PERCENTAGE OF RELAXED DNA: 79.7%
[2]; 100 μM compound
  PERCENTAGE OF RELAXED DNA: 33.5%
[2]; 200 μM compound
  PERCENTAGE OF RELAXED DNA: 23.2%

## CCOC(=O)CC(O)(CC)c1cc2n(c(=O)c1CO)Cc1cc3ccccc3nc1-2 (stereo not shown) [Example 2, ethyl 3-hydroxy-3-[8-(hydroxymethyl)-9-oxo-9,11-dihydroindolizino [1,2-b]quinolin-7-yl]pentanoate]
[2]; 10 μM compound
  PERCENTAGE OF RELAXED DNA: 97.9%
[2]; 100 μM compound
  PERCENTAGE OF RELAXED DNA: 78.3%
[2]; 200 μM compound
  PERCENTAGE OF RELAXED DNA: 73.2%
[2]; 500 μM compound
  PERCENTAGE OF RELAXED DNA: 51.1%
